These compounds were tested against T1, Q46 protein aggregates (Homo sapiens, UniProt P42858) (assay: Q46 Radioligand Binding Assay (RBA), displacement of [^3H3]MK-3328). Settings: 10 nM [^3H3]MK-3328, 5 μM Q46 protein aggregates.
T1 construct: fused on or other part: An N-terminal GST tag, cleaved off with thrombin before the assay to trigger aggregation
Method: For radioligand binding assays (RBA) GST-Q46 protein was generated based on a previous publication (Scherzinger et al. Cell, Vol. 90, 549-558, Aug. 8, 1997). For experiments 33 μM GST-Q46 was incubated with 150 μg/mL thrombin in assay buffer (150 mM NaCl, 50 mM Tris pH 8.0) and 2 mM CaCl2 for 16 hours at 37° C. Aggregated Q46 was pelleted by centrifugation for 5 minutes at 13,000 rpm in a bench top centrifuge and re-dissolved in the same volume of assay buffer. Test compounds were prepared by titration in DMSO at 11 concentrations from 33 μM to 1 nM. For the RBA, Q46 protein aggregates and test compounds were pre-incubated in assay buffer for 20 minutes at room temperature, in 140 μL/well in a 96-well plate (pp, round bottom). Then, ligand was added in 10 μL/well and incubated for 60 minutes at 37° C. Final assay concentrations were 1 μM to 30 pM test compound, 5 μM Q46 protein (equivalent monomer concentration) and 10 nM ligand [^3H3]MK-3328 (Harrision et al., ACS Med. Chem. Lett., 2 (2011), pp 498-502). Samples were transferred onto GF/B filter plates and washed 2× with 200 μL PBS using a Filtermate Harvester. After drying filter plates for 1 hour at 37° C., the back of the plates was sealed with foil and 30 μl/well scintillation fluid (Packard MicroScint 40) was added, incubated for incubated for 15 minutes in the dark and counted in a TopCount reader. For analysis, replicate data from independent assay plates were normalized towards 0% and 100% inhibition using control wells of vehicle (0% inhibition) and 3 μM unlabelled MK-3328 (100% inhibition). IC50 values were determined with a sigmoidal inhibition model with four variables (top, bottom, slope, IC50) in a global fit using the normalized replicate data.

T1 sequence (P42858 with tags, fused parts or gaps with the stated changes, form open): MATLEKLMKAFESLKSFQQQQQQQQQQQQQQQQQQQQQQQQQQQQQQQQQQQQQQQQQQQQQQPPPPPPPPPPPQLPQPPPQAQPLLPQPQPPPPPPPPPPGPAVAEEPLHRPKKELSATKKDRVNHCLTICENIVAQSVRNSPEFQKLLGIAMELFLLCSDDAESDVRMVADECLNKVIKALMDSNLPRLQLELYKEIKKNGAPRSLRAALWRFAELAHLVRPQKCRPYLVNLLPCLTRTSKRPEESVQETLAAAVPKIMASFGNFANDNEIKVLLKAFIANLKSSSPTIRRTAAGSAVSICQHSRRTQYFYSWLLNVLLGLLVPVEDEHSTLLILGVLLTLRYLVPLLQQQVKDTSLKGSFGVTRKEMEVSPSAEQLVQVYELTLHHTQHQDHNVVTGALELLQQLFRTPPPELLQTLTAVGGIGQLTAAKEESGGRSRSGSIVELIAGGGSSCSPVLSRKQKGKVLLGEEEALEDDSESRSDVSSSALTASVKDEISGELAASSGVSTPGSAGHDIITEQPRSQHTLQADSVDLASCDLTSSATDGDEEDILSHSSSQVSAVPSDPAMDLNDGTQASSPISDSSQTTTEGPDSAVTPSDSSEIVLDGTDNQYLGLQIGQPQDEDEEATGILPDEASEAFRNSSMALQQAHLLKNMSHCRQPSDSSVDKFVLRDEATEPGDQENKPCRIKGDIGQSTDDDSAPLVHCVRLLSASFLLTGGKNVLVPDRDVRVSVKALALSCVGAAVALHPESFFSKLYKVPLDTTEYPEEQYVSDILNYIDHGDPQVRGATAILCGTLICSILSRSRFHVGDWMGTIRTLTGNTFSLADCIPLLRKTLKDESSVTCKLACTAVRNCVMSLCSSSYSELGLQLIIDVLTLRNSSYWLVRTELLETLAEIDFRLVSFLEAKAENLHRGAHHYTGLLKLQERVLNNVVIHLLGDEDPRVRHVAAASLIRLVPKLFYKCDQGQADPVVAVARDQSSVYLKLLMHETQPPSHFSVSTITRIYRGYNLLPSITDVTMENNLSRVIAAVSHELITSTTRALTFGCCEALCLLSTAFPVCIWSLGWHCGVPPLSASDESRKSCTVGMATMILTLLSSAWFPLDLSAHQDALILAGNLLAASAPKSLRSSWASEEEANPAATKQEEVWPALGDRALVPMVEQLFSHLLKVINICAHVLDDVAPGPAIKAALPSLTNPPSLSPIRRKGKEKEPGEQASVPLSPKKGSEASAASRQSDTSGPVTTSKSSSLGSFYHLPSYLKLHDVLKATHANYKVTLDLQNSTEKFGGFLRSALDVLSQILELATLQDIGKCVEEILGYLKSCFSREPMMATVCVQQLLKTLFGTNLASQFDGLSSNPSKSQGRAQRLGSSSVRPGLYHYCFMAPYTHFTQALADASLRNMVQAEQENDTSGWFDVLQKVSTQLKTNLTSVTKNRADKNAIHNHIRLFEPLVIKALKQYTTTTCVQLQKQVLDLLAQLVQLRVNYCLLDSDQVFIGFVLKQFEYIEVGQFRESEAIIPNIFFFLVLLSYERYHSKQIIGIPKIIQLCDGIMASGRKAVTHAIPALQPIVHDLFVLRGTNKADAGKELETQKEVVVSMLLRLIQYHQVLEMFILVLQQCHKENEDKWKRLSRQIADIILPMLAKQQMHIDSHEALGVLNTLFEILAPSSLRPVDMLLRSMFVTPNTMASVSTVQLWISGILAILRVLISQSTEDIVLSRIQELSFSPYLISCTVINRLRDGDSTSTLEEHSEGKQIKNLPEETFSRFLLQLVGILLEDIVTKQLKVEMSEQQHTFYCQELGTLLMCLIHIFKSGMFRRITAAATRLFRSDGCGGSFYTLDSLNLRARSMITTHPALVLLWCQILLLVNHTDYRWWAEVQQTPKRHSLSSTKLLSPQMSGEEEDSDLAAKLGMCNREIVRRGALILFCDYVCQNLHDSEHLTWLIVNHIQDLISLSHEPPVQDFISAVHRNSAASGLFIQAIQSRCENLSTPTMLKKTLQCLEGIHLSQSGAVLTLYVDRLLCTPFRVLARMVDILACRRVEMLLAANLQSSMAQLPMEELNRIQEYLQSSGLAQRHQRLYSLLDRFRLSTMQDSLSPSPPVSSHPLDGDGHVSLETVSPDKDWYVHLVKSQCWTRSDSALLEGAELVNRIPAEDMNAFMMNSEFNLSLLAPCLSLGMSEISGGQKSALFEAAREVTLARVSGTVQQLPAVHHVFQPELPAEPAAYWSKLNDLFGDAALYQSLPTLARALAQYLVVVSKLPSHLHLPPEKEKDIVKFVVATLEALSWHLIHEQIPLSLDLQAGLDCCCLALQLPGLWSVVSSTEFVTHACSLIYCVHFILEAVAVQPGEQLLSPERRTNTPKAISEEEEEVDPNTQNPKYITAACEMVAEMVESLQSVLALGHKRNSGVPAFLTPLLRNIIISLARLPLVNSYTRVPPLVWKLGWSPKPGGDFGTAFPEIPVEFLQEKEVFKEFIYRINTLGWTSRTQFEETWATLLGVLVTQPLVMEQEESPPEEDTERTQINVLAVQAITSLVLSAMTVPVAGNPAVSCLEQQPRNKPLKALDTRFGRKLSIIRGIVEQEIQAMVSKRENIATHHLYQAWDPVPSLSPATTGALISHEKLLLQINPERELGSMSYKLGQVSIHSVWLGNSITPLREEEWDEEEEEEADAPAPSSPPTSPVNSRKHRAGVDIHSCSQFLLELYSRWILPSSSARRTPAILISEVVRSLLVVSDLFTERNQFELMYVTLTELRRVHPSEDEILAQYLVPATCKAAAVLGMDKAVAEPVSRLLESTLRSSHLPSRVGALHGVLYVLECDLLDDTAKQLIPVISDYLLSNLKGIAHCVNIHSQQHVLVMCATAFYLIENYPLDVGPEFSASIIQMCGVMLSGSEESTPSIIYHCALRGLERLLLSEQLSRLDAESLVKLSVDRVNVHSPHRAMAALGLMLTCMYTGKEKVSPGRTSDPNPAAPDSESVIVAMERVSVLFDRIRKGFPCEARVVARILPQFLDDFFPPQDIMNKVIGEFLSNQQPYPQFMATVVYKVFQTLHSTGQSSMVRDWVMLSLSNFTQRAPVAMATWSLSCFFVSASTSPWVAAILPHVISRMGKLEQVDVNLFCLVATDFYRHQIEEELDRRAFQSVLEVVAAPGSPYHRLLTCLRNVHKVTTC

Compound	IC50
COc1cc(NC(=O)c2ccn3c(n2)nc2ccccc23)cnc1OC [N-(5,6-dimethoxypyridin-3-yl)-1,8,10-triazatricyclo[7.4.0.0^2,7]trideca-2(7),3,5,8,10,12-hexaene-11-carboxamide]	< 100 nM
COc1ccc2c(c1)sc1nc(C(=O)Nc3ccc(OC)nc3)cn12 [10-methoxy-N-(6-methoxypyridin-3-yl)-7-thia-2,5-diazatricyclo[6.4.0.0^2,6]dodeca-1(12),3,5,8,10-pentaene-4-carboxamide]	< 100 nM
COc1cncc(NC(=O)c2cn3c(n2)sc2ncc(OC)cc23)c1 [11-methoxy-N-(5-methoxypyridin-3-yl)-7-thia-2,5,9-triazatricyclo[6.4.0.0^2,6]dodeca-1(12),3,5,8,10-pentaene-4-carboxamide]	< 100 nM
O=C(Nc1cccnc1)c1ccn2c(n1)nc1ccccc12 [N-(pyridin-3-yl)-1,8,10-triazatricyclo[7.4.0.0^2,7]trideca-2(7),3,5,8,10,12-hexaene-11-carboxamide]	> 500 nM
COc1cncc(NC(=O)c2cn3c(n2)sc2cc(-c4ccccc4)ccc23)c1 [N-(5-methoxypyridin-3-yl)-10-phenyl-7-thia-2,5-diazatricyclo[6.4.0.0^2,6]dodeca-1(12),3,5,8,10-pentaene-4-carboxamide]	< 100 nM
COc1cncc(NC(=O)c2cn3c(n2)sc2cc(OC)ccc23)c1 [10-methoxy-N-(5-methoxypyridin-3-yl)-7-thia-2,5-diazatricyclo[6.4.0.0^2,6]dodeca-1(12),3,5,8,10-pentaene-4-carboxamide]	< 100 nM
COc1cncc(NC(=O)c2ccn3c(n2)nc2ccc(-c4cncc(OC)c4)cc23)c1 [N,4-bis(5-methoxypyridin-3-yl)-1,8,10-triazatricyclo[7.4.0.0^2,7]trideca-2(7),3,5,8,10,12-hexaene-11-carboxamide]	< 100 nM
COCCOc1ccc(NC(=O)c2ccn3c(n2)nc2ccccc23)cn1 [N-[6-(2-methoxyethoxy)pyridin-3-yl]-1,8,10-triazatricyclo[7.4.0.0^2,7]trideca-2(7),3,5,8,10,12-hexaene-11-carboxamide]	< 100 nM
COc1cncc(NC(=O)c2ccn3c(n2)nc2ccc(OC)cc23)c1 [4-methoxy-N-(5-methoxypyridin-3-yl)-1,8,10-triazatricyclo[7.4.0.0^2,7]trideca-2(7),3,5,8,10,12-hexaene-11-carboxamide]	< 100 nM
COc1ccc2c(c1)sc1nc(C(=O)Nc3ccc(C)nc3)cn12 [10-methoxy-N-(6-methylpyridin-3-yl)-7-thia-2,5-diazatricyclo[6.4.0.0^2,6]dodeca-1(12),3,5,8,10-pentaene-4-carboxamide]	< 100 nM
COc1ccc2c(c1)sc1nc(C(=O)N3CCc4ccncc43)cn12 [10-methoxy-4-{1H,2H,3H-pyrrolo[2,3-c]pyridine-1-carbonyl}-7-thia-2,5-diazatricyclo[6.4.0.0^2,6]dodeca-1(12),3,5,8,10-pentaene]	> 500 nM
O=C(Nc1cccnc1)c1cn2c(n1)sc1cc(O)ccc12 [10-hydroxy-N-(pyridin-3-yl)-7-thia-2,5-diazatricyclo[6.4.0.0^2,6]dodeca-1(12),3,5,8,10-pentaene-4-carboxamide]	< 100 nM
COc1cncc(NC(=O)c2cn3c(n2)sc2ccccc23)c1 [N-(5-methoxypyridin-3-yl)-7-thia-2,5-diazatricyclo[6.4.0.0^2,6]dodeca-1(12),3,5,8,10-pentaene-4-carboxamide]	< 100 nM
COCCOc1cncc(NC(=O)c2ccn3c(n2)nc2ccccc23)c1 [N-[5-(2-methoxyethoxy)pyridin-3-yl]-1,8,10-triazatricyclo[7.4.0.0^2,7]trideca-2(7),3,5,8,10,12-hexaene-11-carboxamide]	< 100 nM
COc1cncc(NC(=O)c2cn3c(n2)sc2ncc(Br)cc23)c1 [11-bromo-N-(5-methoxypyridin-3-yl)-7-thia-2,5,9-triazatricyclo[6.4.0.0^2,6]dodeca-1(12),3,5,8,10-pentaene-4-carboxamide]	< 100 nM
COc1ccc2c(c1)sc1nc(C(=O)Nc3cccnc3)cn12 [10-methoxy-N-(pyridin-3-yl)-7-thia-2,5-diazatricyclo[6.4.0.0^2,6]dodeca-1(12),3,5,8,10-pentaene-4-carboxamide]	< 100 nM
COc1ccc2c(c1)nc1sc(C(=O)Nc3ccc(=O)n(C)n3)cn12 [10-methoxy-N-(1-methyl-6-oxo-1,6-dihydropyridazin-3-yl)-5-thia-2,7-diazatricyclo[6.4.0.0^2,6]dodeca-1(12),3,6,8,10-pentaene-4-carboxamide]	< 100 nM

Compound	IC50
COc1ccc2c(c1)sc1nc(C(=O)Nc3ccc(-n4ccnc4)nc3)cn12 [N-[6-(1H-imidazol-1-yl)pyridin-3-yl]-10-methoxy-7-thia-2,5-diazatricyclo[6.4.0.0^2,6]dodeca-1(12),3,5,8,10-pentaene-4-carboxamide]	< 100 nM
Cn1cc(NC(=O)c2ccn3c(n2)nc2ccccc23)ccc1=O [N-(1-methyl-6-oxo-1,6-dihydropyridin-3-yl)-1,8,10-triazatricyclo[7.4.0.0^2,7]trideca-2(7),3,5,8,10,12-hexaene-11-carboxamide]	100 to 500 nM
COc1ccc(NC(=O)c2cn3c(n2)sc2cc(O)ccc23)cn1 [10-hydroxy-N-(6-methoxypyridin-3-yl)-7-thia-2,5-diazatricyclo[6.4.0.0^2,6]dodeca-1(12),3,5,8,10-pentaene-4-carboxamide]	< 100 nM
COc1ccc2c(c1)sc1nc(C(=O)Nc3ccc4occc4c3)cn12 [N-(1-benzofuran-5-yl)-10-methoxy-7-thia-2,5-diazatricyclo[6.4.0.0^2,6]dodeca-1(12),3,5,8,10-pentaene-4-carboxamide]	< 100 nM
COc1ccc2c(c1)sc1nc(C(=O)Nc3cnc(C)nc3)cn12 [10-methoxy-N-(2-methylpyrimidin-5-yl)-7-thia-2,5-diazatricyclo[6.4.0.0^2,6]dodeca-1(12),3,5,8,10-pentaene-4-carboxamide]	< 100 nM
COc1ccc2c(c1)sc1nc(C(=O)Nc3cnccn3)cn12 [10-methoxy-N-(pyrazin-2-yl)-7-thia-2,5-diazatricyclo[6.4.0.0^2,6]dodeca-1(12),3,5,8,10-pentaene-4-carboxamide]	< 100 nM
COc1ccc2c(c1)nc1nc(C(=O)Nc3ccc(-n4ccnc4)nc3)ccn12 [N-[6-(1H-imidazol-1-yl)pyridin-3-yl]-5-methoxy-1,8,10-triazatricyclo[7.4.0.0^2,7]trideca-2(7),3,5,8,10,12-hexaene-11-carboxamide]	< 100 nM
COc1cncc(NC(=O)c2ccn3c(n2)nc2cc(OC)ccc23)c1 [5-methoxy-N-(5-methoxypyridin-3-yl)-1,8,10-triazatricyclo[7.4.0.0^2,7]trideca-2(7),3,5,8,10,12-hexaene-11-carboxamide]	< 100 nM
COc1ccc2c(c1)sc1nc(C(=O)NCc3cccnc3)cn12 [10-methoxy-N-(pyridin-3-ylmethyl)-7-thia-2,5-diazatricyclo[6.4.0.0^2,6]dodeca-1(12),3,5,8,10-pentaene-4-carboxamide]	> 500 nM
COc1ccc2c(c1)nc1nc(C(=O)Nc3cccnc3)ccn12 [5-methoxy-N-(pyridin-3-yl)-1,8,10-triazatricyclo[7.4.0.0^2,7]trideca-2(7),3,5,8,10,12-hexaene-11-carboxamide]	< 100 nM
COc1cncc(NC(=O)c2cn3c(n2)sc2cc(CN(C)C)ccc23)c1 [10-[(dimethylamino)methyl]-N-(5-methoxypyridin-3-yl)-7-thia-2,5-diazatricyclo[6.4.0.0^2,6]dodeca-1(12),3,5,8,10-pentaene-4-carboxamide]	100 to 500 nM
COc1ccc2c(c1)sc1nc(CNc3cccnc3)cn12 [N-({10-methoxy-7-thia-2,5-diazatricyclo[6.4.0.0^2,6]dodeca-1(12),3,5,8,10-pentaen-4-yl}methyl)pyridin-3-amine]	> 500 nM
O=C(Nc1ccc(=O)[nH]n1)c1ccn2c(n1)nc1ccccc12 [N-(6-oxo-1,6-dihydropyridazin-3-yl)-1,8,10-triazatricyclo[7.4.0.0^2,7]trideca-2(7),3,5,8,10,12-hexaene-11-carboxamide]	< 100 nM
N#Cc1cnccc1NC(=O)c1ccn2c(n1)nc1ccccc12 [N-(3-cyanopyridin-4-yl)-1,8,10-triazatricyclo[7.4.0.0^2,7]trideca-2(7),3,5,8,10,12-hexaene-11-carboxamide]	< 100 nM
COc1cc(NC(=O)c2ccn3c(n2)nc2ccccc23)ccn1 [N-(2-methoxypyridin-4-yl)-1,8,10-triazatricyclo[7.4.0.0^2,7]trideca-2(7),3,5,8,10,12-hexaene-11-carboxamide]	< 100 nM
COc1ccc2c(c1)sc1nc(C(=O)NCCN(C)C)cn12 [N-[2-(dimethylamino)ethyl]-10-methoxy-7-thia-2,5-diazatricyclo[6.4.0.0^2,6]dodeca-1(12),3,5,8,10-pentaene-4-carboxamide]	100 to 500 nM

From US10765764B2, “Probes for imaging huntingtin protein” (CHDI Foundation, Inc., priority 2015, dated 2020)
